According to patent publication US20100184601A1, “Method and Means Relating to Multiple Herbicide Resistance in Plants” (University of Durham, priority 2007, published 2010):

Test system: AmGSTL1
Assay: Effect of inhibitors on activity of recombinant black-grass AmGSTL (thiol transferase)
Assay type: biochemical, black-grass (Alopecurus myosuroides)
Settings: 0.1 mM inhibitor; recombinant enzyme

inhibition of AmGSTL1 activity: totally inhibited
Compound: O=C1O/C(=C/Br)CCC1c1cccc2ccccc12 (stereo not shown) [BEL, Bromoenol lactone]
